Measured values as given in US12692262B2, “Substituted ureas as orexin receptor agonists” (Merck Sharp & Dohme LLC, priority 2020, dated 2026).

Biological target: T1, human OX2R (Homo sapiens, UniProt O43614)
T1 construct: expressed in transfected cells; host or cells: CHO (Chinese hamster ovary) cells grown under G418 selection
T1 sequence (O43614 1-444): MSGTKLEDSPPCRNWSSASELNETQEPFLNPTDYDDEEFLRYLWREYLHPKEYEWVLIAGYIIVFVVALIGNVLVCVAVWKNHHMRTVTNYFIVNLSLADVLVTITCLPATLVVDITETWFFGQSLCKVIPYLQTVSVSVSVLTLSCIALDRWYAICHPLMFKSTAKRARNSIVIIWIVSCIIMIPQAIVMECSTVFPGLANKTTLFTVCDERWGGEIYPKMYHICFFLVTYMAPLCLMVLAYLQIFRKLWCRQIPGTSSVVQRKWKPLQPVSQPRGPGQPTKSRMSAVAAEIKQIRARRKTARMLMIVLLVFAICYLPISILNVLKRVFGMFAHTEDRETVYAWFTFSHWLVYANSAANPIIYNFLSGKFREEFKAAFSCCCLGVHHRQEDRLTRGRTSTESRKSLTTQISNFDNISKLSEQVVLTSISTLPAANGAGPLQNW
Assay: IPOne (IP-1 accumulation) assay in CHO cells expressing human OX2R
Format: cell-based
Details: for EC50: CHO cells expressing human OX2R, IP-One assay, 2 h incubation, four parameter logistic fit, read-out: OX2R Potency, EC50; for % of maximum agonist effect (relative to Orexin A): percent effect vs mean max effect of a reference compound at 1 uM (100% activity vs Orexin A), human OX2R
Source text: The utility of the compounds in accordance with the present invention as orexin receptor OX1R and/or OX2R agonists may be readily determined without undue experimentation by methodology well known in the art. Both the OX1R and/or OX2R G-coupled protein receptors (GPCRs) couple through the Gαq signaling pathway, which ultimately promotes calcium mobilization via inositol triphosphate (IP3) production. […] The utility of the compounds in accordance with the present invention as orexin receptor OX1R and/or OX2R agonists may be determined utilizing this assay.
In a typical experiment, the OX1 and OX2 receptor agonist activity is determined in accordance with the following general experimental method. Chinese hamster ovary (CHO) cells expressing human OX1R and/or the human OX2R were grown in Iscove's modified DMEM containing glutaMAX™, 1% G418, 100 U/mL penicillin, 100 μg/mL streptomycin and 10% heat-inactivated qualified fetal bovine serum (FBS). […] During this incubation, IP-one detection reagents were prepared (38:1:1 lysis buffer:D2:AB-cryptate reagents).
For each compound, data were fit to a four parameter logistic fit (ActivityBase software) and the EC50 was reported as the inflection point of the resulting curve. […] The intrinsic orexin receptor agonist activity of a compound which may be used in the present invention may be determined by these assays.

Compound | EC50 | % of maximum agonist effect (relative to Orexin A) | % of maximum agonist effect (relative to Orexin A) (1 µM)
CCN(C(=O)N[C@@H](CCC(F)(F)F)C(F)(F)F)[C@H](C)c1cccc(-c2cc(OC)c3ncc(Cl)n3c2)c1 [Example 8-9, 1-((R)-1-(3-(3-chloro-8-methoxyimidazo[1,2-a]pyridin-6-yl)phenyl)ethyl)-1-ethyl-3-((S)-1,1,1,5,5,5-hexafluoropentan-2-yl)urea] | 0.7 nM | 99.7% | 
CCN(C(=O)N[C@@H](C(C)(C)C)C(F)(F)F)[C@@H](c1cc(-c2cn3ccnc3c(OC)n2)c(OC)cn1)C(F)(F)F [Example 2-28, 1-ethyl-1-((S)-2,2,2-trifluoro-1-(5-methoxy-4-(8-methoxyimidazo[1,2-a]pyrazin-6-yl)pyridin-2-yl)ethyl)-3-((S)-1,1,1-trifluoro-3,3-dimethylbutan-2-yl)urea] | 16.1 nM | 99.1% | 
CCN(C(=O)N[C@@H](CCC(F)(F)F)C(F)(F)F)[C@@H](c1cc(-c2cc(OC)n3nccc3n2)c(OC)cn1)C(F)(F)F [Example 9-8, 1-ethyl-3-((S)-1,1,1,5,5,5-hexafluoropentan-2-yl)-1-((S)-2,2,2-trifluoro-1-(5-methoxy-4-(7-methoxypyrazolo[1,5-a]pyrimidin-5-yl)pyridin-2-yl)ethyl)urea] | 44 nM | 99.5% | 
CCN(C(=O)N[C@@H](CCC(F)(F)F)C(F)(F)F)[C@@H](c1cc(-c2cc3scnc3c(OC)n2)c(OC)cn1)C(F)(F)F [Example 10-8, 1-ethyl-3-((S)-1,1,1,5,5,5-hexafluoropentan-2-yl)-1-((S)-2,2,2-trifluoro-1-(5-methoxy-4-(4-methoxythiazolo[4,5-c]pyridin-6-yl)pyridin-2-yl)ethyl)urea] | 2.3 nM | 100.7% | 
CCN(C(=O)N[C@@H](CCC(F)(F)F)C(F)(F)F)C(c1cnc(OC)c(-c2cn3ccnc3c(OC)n2)n1)C(F)(F)F (stereo partly drawn) [Example 10-5, 1-ethyl-3-((S)-1,1,1,5,5,5-hexafluoropentan-2-yl)-1-(2,2,2-trifluoro-1-(5-methoxy-6-(8-methoxyimidazo[1,2-a]pyrazin-6-yl)pyrazin-2-yl)ethyl)urea] | 2.5 nM | 101.6% | 
CCN(C(=O)N[C@@H](CCC(F)(F)F)C(F)(F)F)[C@@H](c1cc(-c2nc(OC)c3nccn3n2)c(OC)cn1)C(F)(F)F [Example 9-11, 1-ethyl-3-((S)-1,1,1,5,5,5-hexafluoropentan-2-yl)-1-((S)-2,2,2-trifluoro-1-(5-methoxy-4-(4-methoxyimidazo[2,1-f][1,2,4]triazin-2-yl)pyridin-2-yl)ethyl)urea] | 2.6 nM | 99.5% | 
CCN(C(=O)NC(C1CC(F)(F)CCN1C)C(F)(F)F)[C@H](C)c1cccc(-c2cc(OC)n3nccc3c2)c1 (stereo partly drawn) [Example 2-53, 3-(1-(4,4-difluoro-1-methylpiperidin-2-yl)-2,2,2-trifluoroethyl)-1-ethyl-1-((R)-1-(3-(7-methoxypyrazolo[1,5-a]pyridin-5-yl)phenyl)ethyl)urea] | 1.5 nM | 101.6% | 
CCN(C(=O)NC(C)c1nc(C)no1)[C@@H](c1cc(-c2cn3ccnc3c(OC)n2)c(OC)cn1)C(F)(F)F (stereo partly drawn) [Example 2-26, 1-ethyl-3-(1-(3-methyl-1,2,4-oxadiazol-5-yl)ethyl)-1-((S)-2,2,2-trifluoro-1-(5-methoxy-4-(8-methoxyimidazo[1,2-a]pyrazin-6-yl)pyridin-2-yl)ethyl)urea] | 8.6 nM | 100.5% | 
CCN(C(=O)NC(CC(F)(F)F)C1CC1)C(c1cc(-c2cn3ccnc3c(OC)n2)c(OC)cn1)C(F)(F)F (stereo not drawn) [Example 6-3, 3-(1-cyclopropyl-3,3,3-trifluoropropyl)-1-ethyl-1-(2,2,2-trifluoro-1-(5-methoxy-4-(8-methoxyimidazo[1,2-a]pyrazin-6-yl)pyridin-2-yl)ethyl)urea] | 13.6 nM | 100.2% | 
CC[C@H](CCC(F)(F)F)NC(=O)N(C)[C@H](C)c1cccc(-c2cn3ccnc3c(OC)n2)c1 [Example 2-58, 1-((R)-1-(3-(8-methoxyimidazo[1,2-a]pyrazin-6-yl)phenyl)ethyl)-1-methyl-3-((R)-6,6,6-trifluorohexan-3-yl)urea] | 17.8 nM | 100.0% | 
C#CC(CCC(F)(F)F)NC(=O)N(CC)[C@H](C)c1cccc(-c2cn3ccnc3c(OC)n2)c1 (stereo partly drawn) [Example 2-65, 1-ethyl-1-((R)-1-(3-(8-methoxyimidazo[1,2-a]pyrazin-6-yl)phenyl)ethyl)-3-(6,6,6-trifluorohex-1-yn-3-yl)urea] | 4 nM | 100.1% | 
CCN(C(=O)NC(C1CN(C)C1)C(F)(F)F)[C@H](C)c1cccc(-c2cn3ccnc3c(OC)n2)c1 (stereo partly drawn) [Example 1-15, 1-ethyl-1-((R)-1-(3-(8-methoxyimidazo[1,2-a]pyrazin-6-yl)phenyl)ethyl)-3-(2,2,2-trifluoro-1-(1-methylazetidin-3-yl)ethyl)urea] | 271 nM | 99.7% | 
CCN(C(=O)N[C@@H](CCC(F)(F)F)C(F)(F)F)C(c1cc(-c2cc(OC)c3ncccc3c2)c(OC)cn1)C(F)(F)F (stereo partly drawn) [Example 10-11, 1-ethyl-3-((S)-1,1,1,5,5,5-hexafluoropentan-2-yl)-1-(2,2,2-trifluoro-1-(5-methoxy-4-(8-methoxyquinolin-6-yl)pyridin-2-yl)ethyl)urea] | 7.3 nM | 101.3% | 
CCN(C(=O)N[C@@H](CCC(F)F)C(F)F)[C@@H](c1cc(-c2cn3cc(C)nc3c(OC)n2)c(OC)cn1)C(F)(F)F [Example 4-2, 1-ethyl-3-((S)-1,1,5,5-tetrafluoropentan-2-yl)-1-((S)-2,2,2-trifluoro-1-(5-methoxy-4-(8-methoxy-2-methylimidazo[1,2-a]pyrazin-6-yl)pyridin-2-yl)ethyl)urea] | 5.9 nM | 99.9% | 
CCN(C(=O)NC(c1cccc(F)c1)C(F)(F)F)[C@@H](c1cccc(-c2cn3ccnc3c(OC)n2)c1)C(F)(F)F (stereo partly drawn) [Example 2-66, 1-ethyl-1-((S)-2,2,2-trifluoro-1-(3-(8-methoxyimidazo[1,2-a]pyrazin-6-yl)phenyl)ethyl)-3-(2,2,2-trifluoro-1-(3-fluorophenyl)ethyl)urea] | 5.2 nM | 97.2% | 
CCN(C(=O)N[C@@H](CCC(F)(F)F)C(F)(F)F)C(C)c1cc(-c2cc(F)c3nccn3c2)c(Cl)cn1 (single isomer, unassigned) [Example 15-1] | 5.8 nM | 100.5% | 
CCCN(C(=O)N[C@H](CC)CCC(F)(F)F)[C@H](C)c1cccc(-c2cn3ccnc3c(OC)n2)c1 [Example 2-59, 1-((R)-1-(3-(8-methoxyimidazo[1,2-a]pyrazin-6-yl)phenyl)ethyl)-1-propyl-3-((R)-6,6,6-trifluorohexan-3-yl)urea] | 20.9 nM | 100.2% | 
CCN(C(=O)N[C@@H](C=C(C)C)C(F)(F)F)[C@H](C)c1cccc(-c2cn3ccnc3c(OC)n2)c1 [Example 5-2, 1-ethyl-1-((R)-1-(3-(8-methoxyimidazo[1,2-a]pyrazin-6-yl)phenyl)ethyl)-3-((S)-1,1,1-trifluoro-4-methylpent-3-en-2-yl)urea] |  |  | 99.1%
CCN(C(=O)N[C@@H](CCC(F)(F)F)C(F)(F)F)[C@H](C)c1cnc(C)c(-c2cn3ccnc3c(OC)n2)c1 [Example 10-18, 1-ethyl-3-((S)-1,1,1,5,5,5-hexafluoropentan-2-yl)-1-((R)-1-(5-(8-methoxyimidazo[1,2-a]pyrazin-6-yl)-6-methylpyridin-3-yl)ethyl)urea] | 11.9 nM | 99.8% | 
CCN(C(=O)N[C@@H](C)C(F)(F)F)C(c1cnc(OC)c(-c2cn3ccnc3c(OC)n2)c1)C(F)(F)F (stereo partly drawn) [Example 2-62, 1-ethyl-1-(2,2,2-trifluoro-1-(6-methoxy-5-(8-methoxyimidazo[1,2-a]pyrazin-6-yl)pyridin-3-yl)ethyl)-3-((S)-1,1,1-trifluoropropan-2-yl)urea] | 13.1 nM | 95.6% | 
